Like-named read-outs stand apart in the source and are kept apart here. Where a SMILES comes first, the peptide text is derived from it. Where no end group is shown, it is not given here. [ ]: non-standard residue; d: D form. The star is where a group is joined. pGlu = O=C1CC[C@@H](C(=O)O)N1; Acm = CC(=O)NC*
Legend:
[1] = system: mouse bone marrow cells; type: cell-based
Method: For the long-term cultivation, cells isolated from mouse bone marrow were used in semi-solid agar culture. 1.5×10^5 femoral medulla cells obtained from 2-3 month old male C57B1 mice were suspended in 1 ml of "McCoy 5A" medium (product of Gibco), then the following were added: 20% by volume of horse blood-serum (product of Gibco), 16% by volume of L-cell CSF (colony stimulating factor prepared from the supernatant of […]; product of the Pharmacological Institute of the Medical University of Debrecen, Hungary) and agar-agar to 0.18% by weight. 100 μl of the semi-solid medium were cultivated in a Micropet capillary for 7 days in the above-described manner, then the colonies were counted under a Zeiss-Cytoplast stereomicroscope of 40-times magnification. The results are given as the percentage reduction of the numbers of colonies compared to the untreated control. The tests were carried out in the presence of 0.25 mmole/l mercapto ethanol (+ME) and without mercapto ethanol (-ME).

[2] = system: human bone marrow cells; settings: 10^-15 to 10^-4 mole/l, 7-day in vitro treatment; cited from earlier work
[3] = system: mouse bone marrow cells; settings: 10^-15 to 10^-4 mole/l, 7-day in vitro treatment; cited from earlier work
[4] = system: mouse; settings: two mouse species; dose of 9.1 mg/animal or 1 mg/animal; cited from earlier work
[5] = system: cell proliferation; settings: cited from earlier work

CC(=O)NCSC[C@H](NC(=O)[C@H](CC(=O)O)NC(=O)[C@H](CCC(=O)O)NC(=O)[C@@H]1CCC(=O)N1)C(=O)N[C@@H](CCCCN)C(=O)O [SEQ I.D. No: 1, Xaa Glu Asp Cys Lys] ([pGlu]EDC(Acm)K-OH)
percentage reduction of the numbers of colonies compared to the untreated control ([1]; 1e-12 mole/l): 70%
percentage reduction of the numbers of colonies compared to the untreated control ([1]; 1e-8 mole/l): 77%
percentage reduction of the numbers of colonies compared to the untreated control ([1]; 1e-4 mole/l): 81%

CC(=O)NCSC[C@H](NC(=O)[C@H](CC(=O)O)NC(=O)[C@@H](N)CCC(=O)O)C(=O)N[C@@H](CCCCN)C(=O)O [SEQ I.D. No: 2, Glu Asp Cys Lys] (H-EDC(Acm)K-OH)
percentage reduction of the numbers of colonies compared to the untreated control [1]: 29%
percentage reduction of the numbers of colonies compared to the untreated control ([1]; 1e-12 mole/l): 36%
percentage reduction of the numbers of colonies compared to the untreated control ([1]; 1e-10 mole/l): 52%
percentage reduction of the numbers of colonies compared to the untreated control ([1]; 1e-9 mole/l): 26%
percentage reduction of the numbers of colonies compared to the untreated control ([1]; 1e-8 mole/l): 64%
percentage reduction of the numbers of colonies compared to the untreated control ([1]; 1e-6 mole/l): 66%

NCCCC[C@H](NC(=O)[C@H](CS)NC(=O)[C@H](CC(=O)O)NC(=O)[C@H](CCC(=O)O)NC(=O)[C@@H]1CCC(=O)N1)C(=O)O [SEQ I.D. No: 5, Xaa Glu Asp Cys Lys] (HELM PEPTIDE1{[Glp].E.D.C.K}$$$$V2.0)
toxicity to bone marrow cells [2]: not toxic
toxicity to bone marrow cells [3]: not toxic
toxicity to mice [4]: not toxic

Xaa Glu Asp Cys Lys Xaa Glu Asp Cys Lys ([pGlu]EDCK[pGlu]EDCK; not fully specified; printed as Xaa Glu Asp Cys Lys Xaa Glu Asp Cys Lys; cysteine pairing not given here) [SEQ I.D. No: 3, dimer molecule of the hemoregulating pentapeptide, Xaa is pyroglutamic acid]
effect on cell proliferation [5]: cell proliferation stimulating effect

Xaa Glu Asp Met Lys ([pGlu]EDMK) [SEQ I.D. No: 4, Met analogue of the pentapeptide, Xaa is pyroglutamic acid]
effect on cell proliferation [5]: ineffectiveness
